According to patent EP4745145A1, “SALT OF THIAZOLOPYRAZINE COMPOUND OR CRYSTAL THEREOF AND USE THEREOF” (Simcere Zaiming Pharmaceutical Co., Ltd., priority 2023, dated 2025):

Assays:
[1] = tested on: POLQ-mediated MMEJ pathway; assay: Inhibition of cellular MMEJ pathway (NanoLuciferase reporter in HEK293T cells); type: cell-based; conditions: 24 h
Procedure: Brief introduction to experimental principle: POLQ is a key protein in the repair process of cellular MMEJ. The NanoLuciferase MMEJ repair reporter system was transferred into HEK293T cells. When the MMEJ repair pathway was normally performed in the cells, the NanoLuciferase reporter protein was correctly expressed, and the cell luminescence signal could be detected. The decrease in cell luminescence was measured using a BMG multifunctional microplate reader from BMG LABTECH to reflect the inhibition of the compound on the cellular MMEJ pathway.
Experimental methods: The test compound was diluted to different concentrations with dimethyl sulfoxide (DMSO) using an Echo 655 pipetting system and transferred to a 384-well plate. In the reaction system, the compound was serially diluted 3-fold from the final concentration of 10 µM. The final concentration of DMSO was 0.1%. HEK293T cells were collected, an MMEJ luciferase […] was transferred to the cells using a Neon transfection system, and the transfected HEK293T cells at 4000 cells/well were diluted with a DMEM medium containing 10% FBS and added to a 384-well plate (25 µL/well).
The compound inhibition rate was calculated and fitted using XLfit software to give the IC50 of the compounds. A Blank well and a DMSO well were set in the experiment.

[2] = tested on: hepatocytes; assay: Metabolic stability in hepatocytes; type: in vitro ADME; conditions: hepatocytes of various species
Procedure: The metabolic stability of the compounds of the present disclosure in hepatocytes was determined by the following test method.
• 1. Human hepatocytes (Biopredic BQHPCH10), cynomolgus monkey hepatocytes (RILD HP-SXH-02M), Beagle dog hepatocytes (BioIVT M00205), SD rat hepatocytes (BioIVT M00005), and CD-1 mouse hepatocytes (BioIVT M00505) • 2. AOPI stain (Nexcelom 200710-01-01) • 3. Dexamethasone (NIFDC 100129-201506) • 4. DPBS (10×) (Gibco by Life Technologies 2060570) • 5. Fetal bovine serum (FBS) (Corning 35081001) • 6. GlutaMAXTM-1 (100×) (Gibco by Life Technologies 2186980) • 7. HEPES (Sigma RNBJ1276) • 8. Human recombinant insulin (Gibco by Life Technologies 2090407) • 9. Isotonic Percoll (GE Healthcare 10288259) • 10. Verapamil (Sigma MKBV4993V) • 11. Williams' Medium E (Sigma RNBJ3314) • 12. […]
All data were calculated by Microsoft Excel software. The peak area was detected through an extracted ion chromatogram. The in vitro half-life (t1/2) of the compound was determined by performing linear fitting of the natural logarithm of elimination percent of the compound and time.
In vitro half-life (t1/2) was calculated by the slope: in vitro t1/2 = 0.693/k [formula]
The in vitro intrinsic clearance (unit: µL/min/mg protein) was calculated using the following formula: in vitro CLint = k × volume of incubation (μL)/amount of proteins (mg) [formula] […]

[3] = tested on: DLD-1 parent cells; assay: Inhibition of tumor cell proliferation (CTG, 7 days); type: cell-based; conditions: Homo sapiens, DLD-1, 168 h; 7 days incubation
Procedure: (§1) Brief introduction to experimental principle: After the compound was co-incubated with tumor cells for 7 days, the ATP in viable cells was quantified using the CTG kit from Promega to reflect the effect of the compound on tumor cell proliferation.
(§2) Experimental methods: DLD-1 parent cells or DLD-1 BRCA2 (-/-) cells were diluted with an RPMI 1640 medium containing 10% FBS and then added to a 96-well plate (90 µL/well), with the number of cells being 600/well or 1200/well, respectively, and incubated overnight in an incubator at 37 °C with 5% CO2. The test compound was diluted to different concentrations with dimethyl sulfoxide (DMSO) and then added to a 96-well plate, such that, in the reaction system, the compound was serially diluted 4-fold from the final concentration of 25 µM. The concentration range of the compound was from 25 µM to 0.0004 µM, and the final concentration of DMSO was 0.25% v/v. After incubation for 7 days, 50 µL/well of CTG was added, and the mixture was incubated at room temperature for 10 min. The luminescence (Lum) signal value was read using an Envision microplate reader, and the inhibition rate and half inhibitory concentration (IC50) were calculated.
(§3) A Blank well and a DMSO well were set in the experiment. […] Inhibition rate = 100 × (Lummax−Lumcompound)/(Lummax−Lummin)% [formula] wherein Lummax refers to the luminescence signal value of the well containing cells and 0.25% v/v DMSO, and Lumcompound refers to the luminescence signal value of the well containing the compound and cells. Lummin refers to the luminescence signal value of the well containing the medium and 0.25% v/v DMSO.

[4] = tested on: DLD-1 BRCA2 (-/-) cells; assay: as above; type: cell-based
Procedure: as §1, §2, §3

In the case of `COc1ccc(Cl)cc1-c1cc(C)ncc1C(=O)Nc1nc2ncc(-c3ccc(C#N)cc3)nc2s1` [Compound of formula I, 4-(5-chloro-2-methoxyphenyl)-N-[6-(4-cyanophenyl)thiazolo[4,5-b]pyrazin-2-yl]-6-methylnicotinamide], the “inhibitory activity on the POLQ-mediated MMEJ pathway in cells” value [1] is reported as “strong inhibitory activity”, the “metabolic stability in hepatocytes” value [2] is reported as “metabolically stable” and the IC50 [3] is reported as ≥ 10 µM. For the same molecule, the “inhibitory effect on tumor cells with BRCA2 mutation” value [4] was “good inhibitory effect”, the selectivity [4] was “good selectivity” and the IC50 ([4]; Homo sapiens, DLD-1, 168 h, 7 days incubation) was < 0.2 µM.
